We go through 11 compounds from ChEMBL document CHEMBL3044881, “Synthesis and biological evaluation of novel series of chalcone derivatives as inhibitors of cyclooxygenase and LPS-induced TNF- with potent antioxidant properties” (Med Chem Res, 2012).

One test deals with Blood. The experiment in a line: Anti-inflammatory activity in Homo sapiens (human) whole blood assessed inhibition of LPS-induced TNF-alpha production at 1 uM treated 30 min before LPS challenge measured after 5 hr. Type of test: functional.
Details: not given
In the case of `COc1cc(OC)c(C(=O)/C=C/c2cccc(C#N)c2)c(O)c1Br`, the inhibition at 1 µM was 26%.

As for `COc1cc(/C=C/C(=O)c2c(OC)cc(OC)c(Br)c2O)cc(OC)c1`, the inhibition at 1 µM was determined as 25%.

Regarding `C[C@H]1C[C@H]2[C@@H]3CCC4=CC(=O)C=C[C@]4(C)[C@@]3(F)[C@@H](O)C[C@]2(C)[C@@]1(O)C(=O)CO` [BETAMETHASONE], at 1 µM the inhibition was 72%.

In turn, `COc1cc(OC)c(C(=O)/C=C/c2ccc(Cl)cc2)c(O)c1Br` yielded an inhibition at 1 µM of 43%.

The compound `COc1ccc(OC)c(/C=C/C(=O)c2c(OC)cc(OC)c(Br)c2O)c1` showed an inhibition at 1 µM of 22%.

On to `COc1cc(OC)c(C(=O)/C=C/c2cccc(Br)c2)c(O)c1Br`, for which the inhibition at 1 µM came out at 13%.

In turn, `COc1cc(OC)c(C(=O)/C=C/c2cc[nH]c2)c(O)c1Br` registered an inhibition at 1 µM of 42%.

The test system of the next test is Radical scavenging activity. The experiment in a line: Antioxidant activity assessed as DPPH free radical scavenging activity at 10 uM by spectrophotometric analysis. Format: functional.
Details: not given
For `COc1cc(OC)c(C(=O)/C=C/c2cccc(C#N)c2)c(O)c1Br`, the Activity was determined as 27.4%.

Take `O=C(O)c1cc(O)c(O)c(O)c1`: the Activity is 91%.

Consider `COc1cc(OC)c(C(=O)/C=C/c2ccc(Cl)cc2)c(O)c1Br`, for which the Activity came to 18.4%.

For the compound `COc1ccc(OC)c(/C=C/C(=O)c2c(OC)cc(OC)c(Br)c2O)c1`, the Activity was 23%.

In the case of `COc1cc(OC)c(C(=O)/C=C/c2cccc(Br)c2)c(O)c1Br`, the Activity came to 24.1%.

With `COc1cc(OC)c(C(=O)/C=C/c2cc[nH]c2)c(O)c1Br`, the Activity came out at 26.7%.

For a further test, the system named is Blood. The test can be described thus: Anti-inflammatory activity in Homo sapiens (human) whole blood assessed inhibition of LPS-induced TNF-alpha production at 10 uM treated 30 min before LPS challenge measured after 5 hr.
Details: not given
Type of test: functional.
Take `COc1cc(OC)c(C(=O)/C=C/c2cccc(C#N)c2)c(O)c1Br`: testing at 10 µM gave an inhibition of 57%.

In turn, `COc1cc(/C=C/C(=O)c2c(OC)cc(OC)c(Br)c2O)cc(OC)c1` returned an inhibition at 10 µM of 37%.

Take `C[C@H]1C[C@H]2[C@@H]3CCC4=CC(=O)C=C[C@]4(C)[C@@]3(F)[C@@H](O)C[C@]2(C)[C@@]1(O)C(=O)CO` [BETAMETHASONE]: the inhibition at 10 µM came to 87%.

`COc1cc(OC)c(C(=O)/C=C/c2ccc(Cl)cc2)c(O)c1Br` registered an inhibition at 10 µM of 51%.

Compound `COc1ccc(OC)c(/C=C/C(=O)c2c(OC)cc(OC)c(Br)c2O)c1` showed an inhibition at 10 µM of 57%.

Compound `COc1cc(OC)c(C(=O)/C=C/c2cccc(Br)c2)c(O)c1Br` registered an inhibition at 10 µM of 57%.

As to `COc1cc(OC)c(C(=O)/C=C/c2cc[nH]c2)c(O)c1Br`, the inhibition at 10 µM is 78%.

A further test has as its target T1, Beta-glucuronidase (Homo sapiens) (UniProt P08236).
T1 sequence (whole entry): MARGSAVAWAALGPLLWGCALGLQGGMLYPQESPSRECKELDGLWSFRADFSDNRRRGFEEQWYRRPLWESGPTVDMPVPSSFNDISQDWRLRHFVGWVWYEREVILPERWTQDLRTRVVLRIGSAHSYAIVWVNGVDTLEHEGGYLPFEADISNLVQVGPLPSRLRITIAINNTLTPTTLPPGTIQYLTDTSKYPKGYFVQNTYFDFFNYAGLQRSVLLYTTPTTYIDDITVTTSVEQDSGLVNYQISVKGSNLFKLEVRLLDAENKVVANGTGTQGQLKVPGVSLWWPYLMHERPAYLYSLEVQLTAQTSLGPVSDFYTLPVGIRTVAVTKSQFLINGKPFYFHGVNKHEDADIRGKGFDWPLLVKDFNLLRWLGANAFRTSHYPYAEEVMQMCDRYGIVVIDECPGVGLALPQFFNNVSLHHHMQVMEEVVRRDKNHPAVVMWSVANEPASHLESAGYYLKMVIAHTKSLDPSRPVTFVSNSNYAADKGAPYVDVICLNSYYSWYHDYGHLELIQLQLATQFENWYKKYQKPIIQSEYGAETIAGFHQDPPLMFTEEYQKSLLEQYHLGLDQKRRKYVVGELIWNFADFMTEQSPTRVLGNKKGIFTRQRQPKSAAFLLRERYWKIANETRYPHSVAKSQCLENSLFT
The experiment in a line: Inhibition of beta-glucuronidase (unknown origin) using p-nitrophenyl-beta-D-glucopyranosiduronic acid as substrate at 1 mM after 30 min.
Details: not given
`O=C(O)c1ccccc1O` displayed an inhibition of 26.5%.

A further test concerns the target T2, Prostaglandin G/H synthase 2 (Ovis aries) (UniProt P79208).
T2 sequence (whole entry): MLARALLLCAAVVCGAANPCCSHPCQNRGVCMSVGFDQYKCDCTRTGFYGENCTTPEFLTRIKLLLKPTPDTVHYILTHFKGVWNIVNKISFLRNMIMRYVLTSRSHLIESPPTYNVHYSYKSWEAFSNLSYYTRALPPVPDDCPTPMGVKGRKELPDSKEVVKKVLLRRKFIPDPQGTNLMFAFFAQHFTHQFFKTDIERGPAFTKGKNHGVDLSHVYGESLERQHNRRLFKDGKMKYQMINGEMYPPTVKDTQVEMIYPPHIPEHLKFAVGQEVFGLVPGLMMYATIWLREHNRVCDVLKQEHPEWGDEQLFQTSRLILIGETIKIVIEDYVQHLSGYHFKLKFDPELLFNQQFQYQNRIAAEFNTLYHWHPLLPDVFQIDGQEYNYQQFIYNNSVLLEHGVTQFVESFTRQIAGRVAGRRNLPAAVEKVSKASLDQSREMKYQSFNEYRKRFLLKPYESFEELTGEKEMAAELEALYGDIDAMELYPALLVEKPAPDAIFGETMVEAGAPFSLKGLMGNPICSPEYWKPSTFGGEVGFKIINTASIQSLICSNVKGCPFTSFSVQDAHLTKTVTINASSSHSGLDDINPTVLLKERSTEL
The test can be described thus: Inhibition of Ovis aries (sheep) COX2 at 1 mM after 5 min by colorimetric analysis.
Details: not given
Consider `CC(=O)Oc1ccccc1C(=O)O`, for which the inhibition is 38.5%.

System in another test: not listed separately
The experiment in a line: Antioxidant activity assessed as reduction of K3Fe(CN)6 to Fe2+ at 10 uM after 10 min. Type of test: functional. The arrangement: scale not given: the % may be the effect or the level left.
Details: not given
Consider `O=C1O[C@H]([C@@H](O)CO)C(O)=C1O`, for which the Activity stood at 76.6%.

Consider `COc1cc(OC)c(C(=O)/C=C/c2cccc(C#N)c2)c(O)c1Br`, for which the Activity is 17.3%.

For `COc1cc(/C=C/C(=O)c2c(OC)cc(OC)c(Br)c2O)cc(OC)c1`, the Activity is 18.4%.

On to `COc1cc(OC)c(C(=O)/C=C/c2ccc(Cl)cc2)c(O)c1Br`, for which the Activity came out at 15.7%.

With `COc1ccc(OC)c(/C=C/C(=O)c2c(OC)cc(OC)c(Br)c2O)c1`, the Activity amounted to 22.9%.

On to `COc1cc(OC)c(C(=O)/C=C/c2cccc(Br)c2)c(O)c1Br`, for which the Activity was found to be 19.6%.

`COc1cc(OC)c(C(=O)/C=C/c2cc[nH]c2)c(O)c1Br`: the Activity is 26%.

System in a further test: not listed separately
The test can be described thus: Antioxidant activity assessed as hydroxyl radical scavenging activity at 10 uM by spectrophotometric analysis. Type of test: functional.
Details: not given
For the compound `O=C1O[C@H]([C@@H](O)CO)C(O)=C1O`, the Activity stood at 41.2%.

Regarding `COc1cc(OC)c(C(=O)/C=C/c2cccc(C#N)c2)c(O)c1Br`, the Activity turned out to be 25.6%.

As for `COc1cc(/C=C/C(=O)c2c(OC)cc(OC)c(Br)c2O)cc(OC)c1`, the Activity stood at 23.5%.

Regarding `COc1cc(OC)c(C(=O)/C=C/c2ccc(Cl)cc2)c(O)c1Br`, the Activity is 38.2%.

For `COc1ccc(OC)c(/C=C/C(=O)c2c(OC)cc(OC)c(Br)c2O)c1`, the Activity came out at 31.6%.

As to `COc1cc(OC)c(C(=O)/C=C/c2cccc(Br)c2)c(O)c1Br`, the Activity turned out to be 38.2%.

A further test concerns Blood. The experiment in a line: Anti-inflammatory activity in Homo sapiens (human) whole blood assessed inhibition of LPS-induced TNF-alpha production treated 30 min before LPS challenge measured after 5 hr. Type of test: functional, tissue-based. The conditions noted are these: Homo sapiens, Blood; read-out: IC50.
As for `COc1cc(OC)c(C(=O)/C=C/c2cccc(C#N)c2)c(O)c1Br`, the IC50 was found to be 0.7 µM.

Consider `COc1cc(/C=C/C(=O)c2c(OC)cc(OC)c(Br)c2O)cc(OC)c1`, for which the IC50 came out at 11.4 µM.

`C[C@H]1C[C@H]2[C@@H]3CCC4=CC(=O)C=C[C@]4(C)[C@@]3(F)[C@@H](O)C[C@]2(C)[C@@]1(O)C(=O)CO` [BETAMETHASONE]: the IC50 came to 1 µM.

`COc1cc(OC)c(C(=O)/C=C/c2ccc(Cl)cc2)c(O)c1Br`: the IC50 was 1.4 µM.

For `COc1ccc(OC)c(/C=C/C(=O)c2c(OC)cc(OC)c(Br)c2O)c1`, the IC50 was determined as 10.9 µM.

As to `COc1cc(OC)c(C(=O)/C=C/c2cccc(Br)c2)c(O)c1Br`, the IC50 came to 8.2 µM.

On to `COc1cc(OC)c(C(=O)/C=C/c2cc[nH]c2)c(O)c1Br`, for which the IC50 worked out at 0.6 µM.

One may read the inhibition as the change of the read-out against control, counted positive when it falls. A word on the IC50: it is the concentration that gives 50% inhibition.
